US20230151003A1, “COMPOUNDS AND METHODS OF USE” (Exelixis, Inc., priority 2020, published 2023)
Where a name gives a salt, the structure may show the parent alone. Blank lines part the entries; values can stand above or below the compound they belong to.

Tests used:
[1] = molecular target: T1, AXL (Homo sapiens, UniProt P30530); experiment: AXL autophosphorylation ELISA in A-172 cells; assay type: cell-based; conditions: Table 3 Cellular Activities, Gas6-stimulated, phospho-AXL ELISA
T1 construct: endogenous in cells; host or cells: A-172 glioblastoma cells (ATCC #CRL-1620)
T1 sequence (P30530 26-894): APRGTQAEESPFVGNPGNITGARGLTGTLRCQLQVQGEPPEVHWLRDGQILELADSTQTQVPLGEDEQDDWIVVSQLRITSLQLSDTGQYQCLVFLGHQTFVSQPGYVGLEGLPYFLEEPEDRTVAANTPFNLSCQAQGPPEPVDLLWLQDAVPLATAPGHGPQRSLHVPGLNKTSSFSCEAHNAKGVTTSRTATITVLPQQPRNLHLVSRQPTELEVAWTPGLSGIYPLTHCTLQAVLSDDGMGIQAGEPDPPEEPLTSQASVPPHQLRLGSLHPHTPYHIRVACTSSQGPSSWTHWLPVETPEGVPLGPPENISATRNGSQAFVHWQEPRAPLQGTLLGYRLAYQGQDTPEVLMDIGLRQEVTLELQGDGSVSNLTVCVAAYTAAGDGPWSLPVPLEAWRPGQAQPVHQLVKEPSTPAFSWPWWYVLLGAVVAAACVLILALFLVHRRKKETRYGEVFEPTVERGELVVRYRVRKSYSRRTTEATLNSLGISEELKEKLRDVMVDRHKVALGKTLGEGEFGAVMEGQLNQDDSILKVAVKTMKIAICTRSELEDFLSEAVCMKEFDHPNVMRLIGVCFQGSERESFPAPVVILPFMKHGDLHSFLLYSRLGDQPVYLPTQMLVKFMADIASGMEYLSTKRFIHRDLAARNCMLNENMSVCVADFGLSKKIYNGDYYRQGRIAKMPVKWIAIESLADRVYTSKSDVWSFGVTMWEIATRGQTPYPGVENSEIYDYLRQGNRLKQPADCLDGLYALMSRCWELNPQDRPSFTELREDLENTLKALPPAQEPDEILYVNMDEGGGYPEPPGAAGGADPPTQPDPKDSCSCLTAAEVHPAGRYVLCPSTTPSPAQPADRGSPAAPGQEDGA
Procedure: A-172 glioblastoma cells (ATCC #CRL-1620) were seeded at 2.5×10^5 cells/well onto 24-well plates (Greiner #662165), in DMEM (Thermo Fisher #11995-040) containing 10% FBS (Thermo Fisher #26140-079), 1% MEM NEAA (Thermo Fisher #11140-050), 1% GlutaMax (Thermo Fisher #35050-061), and 1% Penicillin Streptomycin (Thermo Fisher #15140-122). A-172 cells were incubated at 37° C., 5% CO2 for 24 h and then starved for 24 h in serum-free medium. Test compounds were serially diluted to produce an 8-point dose curve in fresh serum-free medium to a final concentration of 0.3% DMSO (vehicle) and added to the cells and incubated for 1 h. Cells were then stimulated with 1 μg/mL recombinant human Gas6 (R&D Systems #885-GSB-500) for 15 min, washed with cold PBS, and immediately lysed with 150 μL of cold 1× lysis buffer [20 mM Tris, 137 mM sodium chloride, 2 mM EDTA, 10% glycerol, 1% NP-40 alternative, 1 mM activated sodium orthovanadate, 1 mM PefaBloc SC (Sigma-Aldrich #11429868001), protease/phosphatase inhibitor tablet (Thermo Fisher #A32959)]. Lysates were collected and 100 μL/well added into the human phospho-AXL DuoSet IC ELISA (R&D Systems #DYC2228-2). Assay was performed according to manufacturer's instructions and sample phospho-AXL concentrations were extrapolated using human phospho-AXL control (R&D Systems #841645) as a standard. Positive control wells (100% activity) contained Gas6-stimulated, DMSO-treated cell lysates. Negative control wells (0% activity) contained Gas6-stimulated, reference inhibitor-treated cell lysates. IC50 values were calculated by nonlinear regression analysis using a 4-parameter logistic curve fit in ActivityBase XE (IDBS).

[2] = molecular target: Met (Homo sapiens, UniProt P08581); experiment: Met autophosphorylation ELISA in PC-3 cells; assay type: cell-based; set-up: endogenous in cells; host or cells: PC-3 prostate cancer cells (ATCC #CRL-1435); conditions: Table 3 Cellular Activities, HGF-stimulated, phospho-Met ELISA, read-out: c-Met IC50
How it was run: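 IC50 derived by 4-parameter logistic regression of phospho-Met (panTyr) sandwich ELISA signal, scaled between HGF-stimulated DMSO and reference-inhibitor lysates. PC-3 cells, serum-starved 3 h, received an 8-point compound series (0.3% DMSO) for 1 h before 10 min stimulation with 100 ng/mL human HGF.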

Chain of Met (P08581 25-1390): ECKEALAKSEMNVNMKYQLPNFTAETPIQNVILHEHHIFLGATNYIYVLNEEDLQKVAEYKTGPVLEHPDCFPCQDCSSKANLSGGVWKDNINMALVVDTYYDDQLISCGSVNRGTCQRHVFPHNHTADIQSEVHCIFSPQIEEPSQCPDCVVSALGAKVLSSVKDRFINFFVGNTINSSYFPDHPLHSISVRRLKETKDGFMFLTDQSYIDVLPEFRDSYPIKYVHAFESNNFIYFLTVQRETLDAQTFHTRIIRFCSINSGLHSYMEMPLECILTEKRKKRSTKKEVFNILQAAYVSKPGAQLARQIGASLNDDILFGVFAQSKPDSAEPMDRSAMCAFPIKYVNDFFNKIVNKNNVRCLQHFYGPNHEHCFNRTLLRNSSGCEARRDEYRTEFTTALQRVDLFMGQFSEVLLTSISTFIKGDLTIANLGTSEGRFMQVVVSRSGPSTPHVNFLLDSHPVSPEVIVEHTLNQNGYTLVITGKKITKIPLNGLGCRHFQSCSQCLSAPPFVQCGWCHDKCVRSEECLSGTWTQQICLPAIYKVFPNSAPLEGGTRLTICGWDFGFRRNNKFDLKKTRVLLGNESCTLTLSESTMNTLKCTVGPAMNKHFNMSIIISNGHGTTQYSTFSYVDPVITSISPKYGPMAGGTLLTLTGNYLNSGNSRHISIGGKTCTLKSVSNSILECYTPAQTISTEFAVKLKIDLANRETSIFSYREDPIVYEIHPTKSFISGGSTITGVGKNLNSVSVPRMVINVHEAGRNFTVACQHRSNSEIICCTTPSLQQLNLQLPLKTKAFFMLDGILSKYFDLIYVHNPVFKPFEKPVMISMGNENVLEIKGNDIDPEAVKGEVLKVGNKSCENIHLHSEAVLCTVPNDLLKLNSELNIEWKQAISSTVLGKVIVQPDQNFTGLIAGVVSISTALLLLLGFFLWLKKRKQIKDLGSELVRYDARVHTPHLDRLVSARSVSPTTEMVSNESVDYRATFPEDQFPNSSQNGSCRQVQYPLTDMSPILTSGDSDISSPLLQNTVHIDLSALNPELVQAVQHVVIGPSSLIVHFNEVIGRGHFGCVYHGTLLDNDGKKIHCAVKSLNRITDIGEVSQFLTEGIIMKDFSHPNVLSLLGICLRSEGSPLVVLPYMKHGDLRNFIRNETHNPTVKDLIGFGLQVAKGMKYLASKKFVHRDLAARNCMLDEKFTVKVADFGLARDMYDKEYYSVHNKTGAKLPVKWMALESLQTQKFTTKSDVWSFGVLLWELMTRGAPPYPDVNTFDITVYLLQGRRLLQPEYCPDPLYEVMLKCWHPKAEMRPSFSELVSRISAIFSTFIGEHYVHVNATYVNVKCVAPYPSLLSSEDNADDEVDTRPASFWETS

Structure (SMILES): COc1cc2nccc(Oc3ccc(NC(=O)c4cnc(C)c(-c5ccco5)c4O)cc3)c2cc1OC [Compound 258, N-[4-(6,7-Dimethoxyquinolin-4-yl)oxyphenyl]-5-(furan-2-yl)-4-hydroxy-6-methylpyridine-3-carboxamide]
IC50 [1]: ≤ 100 nM | IC50 [2]: ≤ 100 nM

Structure (SMILES): COc1cc2nccc(Oc3ccc(NC(=O)c4c5n(cc(-c6ccco6)c4=O)CCOC5)cc3F)c2nc1OC [Compound 297, N-[4-[(6,7-Dimethoxy-1,5-naphthyridin-4-yl)oxy]-3-fluorophenyl]-7-(furan-2-yl)-8-oxo-3,4-dihydro-1H-pyrido[2,1-c][1,4]oxazine-9-carboxamide]
IC50 [1]: ≤ 100 nM | IC50 [2]: ≤ 100 nM

Structure (SMILES): COc1cc2nccc(Oc3ccc(NC(=O)c4ccc(C)n(-c5cc[n+]([O-])cc5)c4=O)cc3F)c2nc1OC [Compound 231, N-[4-[(6,7-Dimethoxy-1,5-naphthyridin-4-yl)oxy]-3-fluorophenyl]-6-methyl-1-(1-oxidopyridin-1-ium-4-yl)-2-oxopyridine-3-carboxamide]
IC50 [1]: ≤ 100 nM | IC50 [2]: ≤ 100 nM

Structure (SMILES): COc1cc2nccc(Oc3ccc(NC(=O)c4nnc(C)c(-c5ccc(F)cn5)c4OC)cc3F)c2nc1OC [Compound 215, N-[4-[(6,7-Dimethoxy-1,5-naphthyridin-4-yl)oxy]-3-fluorophenyl]-5-(5-fluoropyridin-2-yl)-4-methoxy-6-methylpyridazine-3-carboxamide]
IC50 [1]: ≤ 100 nM | IC50 [2]: ≤ 100 nM

Structure (SMILES): COCc1nc(C)c(-c2ccc(F)cn2)c(O)c1C(=O)Nc1ccc(Oc2ccnc3cc(OC)c(OC)nc23)c(F)c1 [Compound 214, N-[4-[(6,7-Dimethoxy-1,5-naphthyridin-4-yl)oxy]-3-fluorophenyl]-5-(5-fluoropyridin-2-yl)-4-hydroxy-2-(methoxymethyl)-6-methylpyridine-3-carboxamid]
IC50 [1]: ≤ 100 nM | IC50 [2]: ≤ 100 nM

Structure (SMILES): COc1cc2nccc(Oc3ccc(NC(=O)c4ccc(C)n(-c5cccnc5)c4=O)cc3F)c2nc1OC [Compound 222, N-[4-[(6,7-Dimethoxy-1,5-naphthyridin-4-yl)oxy]-3-fluorophenyl]-6-methyl-2-oxo-1-pyridin-3-ylpyridine-3-carboxamide]
IC50 [1]: ≤ 100 nM | IC50 [2]: ≤ 100 nM

Structure (SMILES): COc1cc2nccc(Oc3ccc(NC(=O)c4c5n(cc(-c6ccc(C)s6)c4=O)CCOC5)cc3F)c2nc1OC [Compound 304, N-[4-[(6,7-Dimethoxy-1,5-naphthyridin-4-yl)oxy]-3-fluorophenyl]-7-(5-methylthiophen-2-yl)-8-oxo-3,4-dihydro-1H-pyrido[2,1-c][1,4]oxazine-9-carboxamide]
IC50 [1]: ≤ 100 nM | IC50 [2]: ≤ 100 nM

Structure (SMILES): COc1cc2nccc(Oc3ccc(NC(=O)c4cccn(-c5ccnc(O)c5)c4=O)cc3F)c2nc1OC [Compound 248, N-[4-[(6,7-Dimethoxy-1,5-naphthyridin-4-yl)oxy]-3-fluorophenyl]-1-(2-hydroxypyridin-4-yl)-2-oxopyridine-3-carboxamide hydrochloride]
IC50 [1]: 300 to 1000 nM | IC50 [2]: ≤ 100 nM

Structure (SMILES): COc1cc2nccc(Oc3ccc(NC(=O)c4ccc(C)n(-c5cccnn5)c4=O)cc3F)c2nc1OC [Compound 234, N-[4-[(6,7-Dimethoxy-1,5-naphthyridin-4-yl)oxy]-3-fluorophenyl]-6-methyl-2-oxo-1-pyridazin-3-ylpyridine-3-carboxamide]
IC50 [1]: ≤ 100 nM | IC50 [2]: ≤ 100 nM

Structure (SMILES): COc1cc2nccc(Oc3ccc(NC(=O)c4c(C)ncc(-c5ccc(F)cn5)c4O)cc3F)c2nc1OC [Compound 68, N-[4-[(6,7-Dimethoxy-1,5-naphthyridin-4-yl)oxy]-3-fluorophenyl]-5-(5-fluoropyridin-2-yl)-4-hydroxy-2-methylpyridine-3-carboxamide]
IC50 [1]: ≤ 100 nM | IC50 [2]: ≤ 100 nM

Other lines, results leading:

IC50 [1]: ≤ 100 nM | IC50 [2]: ≤ 100 nM
Structure (SMILES): COc1cc2nccc(Oc3ccc(NC(=O)c4c(C)n(C)cc(-c5ccc(F)cn5)c4=O)cc3F)c2nc1OC [Compound 71, N-[4-[(6,7-Dimethoxy-1,5-naphthyridin-4-yl)oxy]-3-fluorophenyl]-5-(5-fluoropyridin-2-yl)-1,2-dimethyl-4-oxopyridine-3-carboxamide]

IC50 [1]: ≤ 100 nM | IC50 [2]: ≤ 100 nM
Structure (SMILES): COc1cc2nccc(Oc3ccc(NC(=O)c4cc(C(C)=O)c(C)n(-c5ccc(F)cn5)c4=O)cc3F)c2nc1OC [Compound 59, 5-Acetyl-N-[4-[(6,7-dimethoxy-1,5-naphthyridin-4-yl)oxy]-3-fluorophenyl]-1-(5-fluoropyridin-2-yl)-6-methyl-2-oxopyridine-3-carboxamide]

IC50 [1]: ≤ 100 nM | IC50 [2]: ≤ 100 nM
Structure (SMILES): COCCOc1cc2nccc(Oc3ccc(NC(=O)c4c(C)n(C)c(C)c(-c5ccco5)c4=O)cc3F)c2nc1OC [Compound 254, N-[3-Fluoro-4-[[6-methoxy-7-(2-methoxyethoxy)-1,5-naphthyridin-4-yl]oxy]phenyl]-5-(furan-2-yl)-1,2,6-trimethyl-4-oxopyridine-3-carboxamide]

IC50 [1]: ≤ 100 nM | IC50 [2]: ≤ 100 nM
Structure (SMILES): COCCOc1cc2nccc(Oc3ccc(NC(=O)c4ccc(C)n(-c5ccc(F)cn5)c4=O)cc3F)c2nc1OC [Compound 50, N-[3-Fluoro-4-[[6-methoxy-7-(2-methoxyethoxy)-1,5-naphthyridin-4-yl]oxy]phenyl]-1-(5-fluoropyridin-2-yl)-6-methyl-2-oxopyridine-3-carboxamide]

IC50 [1]: ≤ 100 nM | IC50 [2]: ≤ 100 nM
Structure (SMILES): COc1cc2nccc(Oc3ccc(NC(=O)c4c5n(cc(-c6cc(C)cs6)c4=O)CCOC5)cc3F)c2nc1OC [Compound 302, N-[4-[(6,7-Dimethoxy-1,5-naphthyridin-4-yl)oxy]-3-fluorophenyl]-7-(4-methylthiophen-2-yl)-8-oxo-3,4-dihydro-1H-pyrido[2,1-c][1,4]oxazine-9-carboxamide]

IC50 [1]: ≤ 100 nM | IC50 [2]: ≤ 100 nM
Structure (SMILES): COc1cnc2c(Oc3ccc(NC(=O)c4cn(CCF)c(C)c(-c5cc(C)cs5)c4=O)cc3F)ccnc2c1 [Compound 328, 1-(2-Fluoroethyl)-N-[3-fluoro-4-[(7-methoxy-1,5-naphthyridin-4-yl)oxy]phenyl]-6-methyl-5-(4-methylthiophen-2-yl)-4-oxopyridine-3-carboxamide]

IC50 [1]: ≤ 100 nM | IC50 [2]: ≤ 100 nM
Structure (SMILES): COc1cc2nccc(Oc3ccc(NC(=O)c4ccc(C)n(-c5ccnc(O)c5)c4=O)cc3F)c2nc1OC [Compound 232, N-[4-[(6,7-Dimethoxy-1,5-naphthyridin-4-yl)oxy]-3-fluorophenyl]-1-(2-hydroxypyridin-4-yl)-6-methyl-2-oxopyridine-3-carboxamide]

IC50 [1]: ≤ 100 nM | IC50 [2]: ≤ 100 nM
Structure (SMILES): COc1cc2nccc(Oc3ccc(NC(=O)c4ccc(C)n(-c5ccnc(C)c5)c4=O)cc3F)c2nc1OC [Compound 230, N-[4-[(6,7-Dimethoxy-1,5-naphthyridin-4-yl)oxy]-3-fluorophenyl]-6-methyl-1-(2-methylpyridin-4-yl)-2-oxopyridine-3-carboxamide]

IC50 [1]: ≤ 100 nM | IC50 [2]: ≤ 100 nM
Structure (SMILES): COCCOc1cc2nccc(Oc3ccc(NC(=O)c4cnc(C)c(-c5ccco5)c4O)cc3F)c2nc1OC [Compound 260, N-[3-Fluoro-4-[[6-methoxy-7-(2-methoxyethoxy)-1,5-naphthyridin-4-yl]oxy]phenyl]-5-(furan-2-yl)-4-hydroxy-6-methylpyridine-3-carboxamide]
